Patent publication US6299910A, “Methods for identification, purification, and manufacturing of the active constituent in Salvia-miltiorrhiza (dansheng) and the application of this product in enhancing cardiovascular functions” (Techical Sourcing International, Inc., priority 2000, dated 2001)

Tests used:
animal = conditions: Chen et al., 1980; cited from earlier work
Platelet aggregation [1] = assay: Effect of Dansheng components on platelet anti-aggregation, in vitro (Table VI); format: cell-based; parameters: key to Effect (platelet anti-aggregation): -: not effective; +: effective; ++: very effective; conditions: for platelet anti-aggregation potency, in words: Tables II and VI
rats [2] = assay: Effect of Dansheng components on rats under hypoxia condition (Table V); format: in vivo; parameters: key to Effect (rats under hypoxia condition): -: not effective; +: effective; ++: very effective; conditions: 100 mg/kg dose
[3] = system: Red blood cell lysis by H2O2; assay: Effect of Dansheng components on red blood cell lysis by H2O2 (Table IV); format: cell-based; parameters: key to Effect (red blood cell lysis by H2O2): -: not effective; +: effective; ++: very effective; conditions: 0.33 mg/ml; for inhibition at 330 µg/mL: Erythrocyte, read-out: Degree of Inhibition (red blood cell lysis by H2O2)
Experimental: These compounds were prepared at 0.33 mg/ml.

[4] = Overall bioactivity in three categories: platelet anti-aggregation, life extension under hypoxia, anti-oxidation; conditions: anti-oxidation (liver cell protection)
Experimental: (§1) The other seven compounds are evaluated based on: [1] Their anti-oxidant activity, [2] Anti-platelet aggregation, and [3] Endurance under hypoxia conditions.

rats [5] = assay: Life extension / endurance under hypoxia condition (Table III); format: in vivo; conditions: for extended rats life (up to): hypoxia, dose not given
Experimental: as §1
Compounds 6 and 8 effectively extended rats life up to 78% Other compounds are comparatively lower in this category (see Tables III and V below).

Liver cell = assay: Effect on liver cell MDA amount induced by carbon tetrachloride (antioxidant activity, liver cell protection; Table I); format: cell-based; conditions: 0.5 micro mole/ml
From the text: Table I: Effect of Dansheng Constituents on Liver Cell MDA (Molonyldialdehyde) Amount Induced by Carbon Tetrachloride

Platelet aggregation [6] = assay: Platelet anti-aggregation effect of Magnesium Salvianolate B and its derivatives, in vitro (Table II); format: cell-based; conditions: 900 mcg/ml

Row | Molecule | animal endurance capacity under hypoxia conditions, in words (animal) | inhibition at 180 µg/mL (Platelet aggregation [1]; Platelet, 180 mcg/ml, in vitro) [%] | Effect (rats under hypoxia condition) (rats [2]) | Life Expanded (rats [2]) [%] | Effect (red blood cell lysis by H2O2) [3] | inhibition at 330 µg/mL [3] [%] | % Inhibition (platelet anti-aggregation) (Platelet aggregation [1]; 900 mcg/ml, in vitro) [%] | further results
1 | O=Cc1ccc(O)c(O)c1 [Protocatechualdehydes, Protocatechualdehyde] | increase animal endurance capacity under hypoxia conditions |  |  |  |  |  |  | 
2 | O=C(/C=C/c1ccc(O)c(O)c1/C=C/c1ccc(O)c(O)c1)OC(Cc1ccc(O)c(O)c1)C(=O)O (stereo not shown) [Salvianolic Acid A] | increase animal endurance capacity under hypoxia conditions |  |  |  |  |  |  | 
3 | O=C(O)C(O)Cc1ccc(O)c(O)c1 (stereo not shown) [Danshensu, 3',4 phenyllatic Acid] | increase animal endurance capacity under hypoxia conditions |  |  |  |  |  |  | 
4 | O=C(/C=C/c1ccc(O)c2c1[C@H](C(=O)O[C@H](Cc1ccc(O)c(O)c1)C(=O)O)[C@@H](c1ccc(O)c(O)c1)O2)O[C@H](Cc1ccc(O)c(O)c1)C(=O)O [Salvianolic Acid B] | increase animal endurance capacity under hypoxia conditions |  |  |  |  |  |  | 
5 | O=C(/C=C/c1ccc(O)c(O)c1)O[C@H](Cc1ccc(O)c(O)c1)C(=O)O [Compound 2, Sodium Rosmarinate] |  | 0 | ++ | 42 | ++ | 100 |  | inhibition at 900 µg/mL (Platelet aggregation [1]; Platelet, 900 mcg/ml, in vitro): 13%
6 | O=C(/C=C/c1ccc(O)c2c1C(C(=O)O)C(c1ccc(O)c(O)c1)O2)OC(Cc1ccc(O)c(O)c1)C(=O)O (stereo not shown) [Compound 3, Dipotassium Lithospermate] |  | 0 | + | 23 | ++ | 100 |  | inhibition at 900 µg/mL (Platelet aggregation [1]; Platelet, 900 mcg/ml, in vitro): 18%
7 | O=C(O)C(O)Cc1ccc(O)c(O)c1 (stereo not shown) [Compound 1, Potassium 3' 4-dihydroxyphenyllactate] |  | 0 |  |  | ++ | 100 |  | inhibition at 900 µg/mL (Platelet aggregation [1]; Platelet, 900 mcg/ml, in vitro): 0%; bioactivity level, in words [4]: lowest bio-activity level
8 | Magnesium Isosalvianolate B [Compound 8] |  |  | ++ | 69 | ++ |  | 20 | % Inhibition (platelet anti-aggregation) (Platelet aggregation [1]; 180 mcg/ml, in vitro): 0%; extended rats life (up to) (rats [5]): up to 78%; Degree of Inhibition (red blood cell lysis by H2O2) [3]: 100%
9 | O=C(/C=C/c1ccc(O)c2c1C(C(=O)O)C(c1ccc(O)c(O)c1)O2)OC(Cc1ccc(O)c(O)c1)C(=O)O (stereo not shown) [Compound 4, Magnesium Lithospermate] |  |  | + | 45 | ++ |  | 28 | % Inhibition (platelet anti-aggregation) (Platelet aggregation [1]; 180 mcg/ml, in vitro): 0%; Degree of Inhibition (red blood cell lysis by H2O2) [3]: 100%
10 | O=C(/C=C/c1ccc(O)c2c1C(C(=O)OC(Cc1ccc(O)c(O)c1)C(=O)O)C(c1ccc(O)c(O)c1)O2)OC(Cc1ccc(O)c(O)c1)C(=O)O (stereo not shown) [Compound 6, Magnesium Salvianolate B] |  |  | ++ | 65 | ++ |  | 74 | % Inhibition (platelet anti-aggregation) (Platelet aggregation [1]; 180 mcg/ml, in vitro): 0%; Effect (platelet anti-aggregation) (Platelet aggregation [1]; 900 mcg/ml, in vitro): +; inhibition at 450 µg/mL (Platelet aggregation [1]; Platelet, 450 mcg/ml, in vitro): 15%; platelet anti-aggregation potency, in words (Platelet aggregation [1]): highest potency; platelet anti-aggregation potency, in words (Platelet aggregation [1]; listed as MSV): most potent; secretion of MDA from liver cell, in words (Liver cell): decreases the secretion of MDA from liver cell; bioactivity level, in words [4]: highest bioactivity level; bioactivity level, in words ([4]; listed as Magnesium Salvianolate B): most biologically effective compound; % Life Extension (rats [5]; hypoxia condition, 200 mg/kg dose): 78%; extended rats life (up to) (rats [5]): up to 78%; inhibition at 900 µg/mL (Platelet aggregation [6]): 94%; Degree of Inhibition (red blood cell lysis by H2O2) [3]: 100%
11 | O=C(/C=C/c1ccc(O)c2c1C(C(=O)OC(Cc1ccc(O)c(O)c1)C(=O)O)C(c1ccc(O)c(O)c1)O2)OC(Cc1ccc(O)c(O)c1)C(=O)O (stereo not shown) [Compound 5, Dipotassium Salvianolate B] |  | 0 |  |  | ++ | 100 | 44 | Effect (platelet anti-aggregation) (Platelet aggregation [1]; 900 mcg/ml, in vitro): +
